Values of other authors, collected in patent US20130189275A1, “COMPOSITIONS AND METHODS FOR INHIBITION OF OR TREATMENT OF DENGUE VIRUS INFECTION” (priority 2010, published 2013).

SMILES: Cc1cccc(Nc2cc(Cl)nc(SCC(=O)O)n2)c1C [pirinixic acid]
- syndecan-1 expression (Syndecan-1): downregulated

SMILES: C[C@]12CCC(=O)C[C@@H]1CC[C@@H]1[C@@H]2CC[C@]2(C)[C@@H](O)CC[C@@H]12 [dihydrotestosterone]
- syndecan-3 expression (Syndecan-3): downregulated

SMILES: CC1=C(/C=C/C(C)=C/C=C/C(C)=C/C(=O)O)C(C)(C)CCC1 [tretinoin]
- syndecan-1 expression (Syndecan-1): downregulated

SMILES: O=C1NC(=O)C(c2ccccc2)(c2ccccc2)N1 [phenyloin (PHT), phenyloin]
- syndecan-4 expression (Syndecan-4): downregulated

SMILES: C=C(c1ccc(C(=O)O)cc1)c1cc2c(cc1C)C(C)(C)CCC2(C)C [bexarotene]
- syndecan-2 expression (Syndecan-2): downregulated
